The values below are quoted from earlier work in patent US20060078615A1, “Bilayer tablet of telmisartan and simvastatin” (Boehringer Ingelheim International GmbH, priority 2004, published 2006).

The conditions of this series: physiological pH range of the gastrointestinal tract, pH 1 to 7; free acid form.

As to `CCCc1nc2c(C)cc(-c3nc4ccccc4n3C)cc2n1Cc1ccc(-c2ccccc2C(=O)O)cc1` [Telmisartan, 4′-[2-n-propyl-4-methyl-6-(1-methylbenzimidazol-2-yl)benzimidazol-1-ylmethyl]biphenyl-2-carboxylic acid], the “solubility in aqueous systems” value is “very poor solubility”.
